Measured values from the supplement of paper PMC10307832.

What was measured:
Assay in all cases: relative viability (nuclei count vs DMSO), 5 days (fraction); higher = more cells survive
NCI-H3122 = tested on: NCI-H3122
In short: (§1)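 Each reported value is a median over duplicate plates. It expresses relative viability: treated-well nuclei count divided by vehicle-well nuclei count. Lung cancer cell lines in 1536-well plates were dosed by pin tool a day after seeding, alone with one drug or with a fixed anchor-drug dose plus five library-drug doses (not always all listed) in √10 steps, and nuclei were counted after 5 days.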

NCI-H727 = tested on: NCI-H727
In short: as §1

NCI-H1793 = tested on: NCI-H1793
In short: as §1

RERF-LC-KJ = tested on: RERF-LC-KJ
In short: as §1

LXF-289 = tested on: LXF-289
In short: as §1

NCI-H2405 = tested on: NCI-H2405
In short: as §1

HCC-827 = tested on: HCC-827
In short: as §1

LCLC-97TM1 = tested on: LCLC-97TM1
In short: as §1

NCI-H1437 = tested on: NCI-H1437
In short: as §1

BEN = tested on: BEN
In short: as §1

NCI-H322M = tested on: NCI-H322M
In short: as §1

NCI-H1792 = tested on: NCI-H1792
In short: as §1

NCI-H2087 = tested on: NCI-H2087
In short: as §1

NCI-H1944 = tested on: NCI-H1944
In short: as §1

NCI-H2228 = tested on: NCI-H2228
In short: as §1

SK-LU-1 = tested on: SK-LU-1
In short: as §1

NCI-H1395 = tested on: NCI-H1395
In short: as §1

CAL-12T = tested on: CAL-12T
In short: as §1

NCI-H1650 = tested on: NCI-H1650
In short: as §1

NCI-H647 = tested on: NCI-H647
In short: as §1

201T = tested on: 201T
In short: as §1

O=c1cc(N2CCOCC2)oc2c(-c3cccc4c3sc3ccccc34)cccc12 + CS(=O)(=O)CCNCc1ccc(-c2ccc3ncnc(Nc4ccc(OCc5cccc(F)c5)c(Cl)c4)c3c2)o1 [Lapatinib] (partner 2 µM) was tested, and the relative viability (NCI-H3122; first compound 0.01 µM) was 1.04, the relative viability (NCI-H3122; first compound 0.03162 µM) was 0.961 and the relative viability (NCI-H3122; first compound 0.1 µM) was 1.03. The relative viability (NCI-H3122; first compound 0.3162 µM) was 0.953, the relative viability (NCI-H3122; first compound 1 µM) was 0.97 and the relative viability (NCI-H727; first compound 0.01 µM) was 0.835. The relative viability (NCI-H727; first compound 0.03162 µM) was 0.973, the relative viability (NCI-H727; first compound 0.1 µM) was 0.925 and the relative viability (NCI-H727; first compound 0.3162 µM) was 0.717. For the same compound, the relative viability (NCI-H727; first compound 1 µM) was 0.954, the relative viability (NCI-H1793; first compound 0.01 µM) was 0.707 and the relative viability (NCI-H1793; first compound 0.03162 µM) was 0.824. The relative viability (NCI-H1793; first compound 0.1 µM) was 0.656, the relative viability (NCI-H1793; first compound 0.3162 µM) was 0.499 and the relative viability (NCI-H1793; first compound 1 µM) was 0.45. For the same compound, the relative viability (RERF-LC-KJ; first compound 0.01 µM) was 0.701, the relative viability (RERF-LC-KJ; first compound 0.03162 µM) was 0.882 and the relative viability (RERF-LC-KJ; first compound 0.1 µM) was 0.906. The relative viability (RERF-LC-KJ; first compound 0.3162 µM) was 0.902, the relative viability (RERF-LC-KJ; first compound 1 µM) was 0.795 and the relative viability (LXF-289; first compound 0.01 µM) was 0.872. It also gave a relative viability (LXF-289; first compound 0.03162 µM) of 0.881, a relative viability (LXF-289; first compound 0.1 µM) of 0.89 and a relative viability (LXF-289; first compound 0.3162 µM) of 0.897. It also gave a relative viability (LXF-289; first compound 1 µM) of 0.946, a relative viability (NCI-H2405; first compound 0.01 µM) of 1.12 and a relative viability (NCI-H2405; first compound 0.03162 µM) of 1.18. It also gave a relative viability (NCI-H2405; first compound 0.1 µM) of 1.04, a relative viability (NCI-H2405; first compound 0.3162 µM) of 1.2 and a relative viability (NCI-H2405; first compound 1 µM) of 1.11. It also gave a relative viability (HCC-827; first compound 0.01 µM) of 0.222, a relative viability (HCC-827; first compound 0.03162 µM) of 0.213 and a relative viability (HCC-827; first compound 0.1 µM) of 0.215. It also gave a relative viability (HCC-827; first compound 0.3162 µM) of 0.186, a relative viability (HCC-827; first compound 1 µM) of 0.256 and a relative viability (LCLC-97TM1; first compound 0.01 µM) of 1.09. It also gave a relative viability (LCLC-97TM1; first compound 0.03162 µM) of 1.57, a relative viability (LCLC-97TM1; first compound 0.3162 µM) of 1.13 and a relative viability (LCLC-97TM1; first compound 1 µM) of 0.727. It also gave a relative viability (NCI-H1437; first compound 0.01 µM) of 0.793, a relative viability (NCI-H1437; first compound 0.03162 µM) of 0.783 and a relative viability (NCI-H1437; first compound 0.1 µM) of 0.811. The relative viability (NCI-H1437; first compound 0.3162 µM) was 0.849, the relative viability (NCI-H1437; first compound 1 µM) was 0.813 and the relative viability (BEN; first compound 0.01 µM) was 0.662. It also gave a relative viability (BEN; first compound 0.03162 µM) of 0.843, a relative viability (BEN; first compound 0.1 µM) of 0.69 and a relative viability (BEN; first compound 0.3162 µM) of 0.735. It also gave a relative viability (BEN; first compound 1 µM) of 0.67, a relative viability (NCI-H322M; first compound 0.01 µM) of 0.584 and a relative viability (NCI-H322M; first compound 0.03162 µM) of 0.6. It also gave a relative viability (NCI-H322M; first compound 0.3162 µM) of 0.577, a relative viability (NCI-H322M; first compound 1 µM) of 0.455 and a relative viability (NCI-H1792; first compound 0.01 µM) of 0.884. For the same compound, the relative viability (NCI-H1792; first compound 0.03162 µM) was 0.896, the relative viability (NCI-H1792; first compound 0.1 µM) was 0.808 and the relative viability (NCI-H1792; first compound 0.3162 µM) was 0.874. For the same compound, the relative viability (NCI-H1792; first compound 1 µM) was 0.828, the relative viability (NCI-H2087; first compound 0.01 µM) was 0.847 and the relative viability (NCI-H2087; first compound 0.03162 µM) was 1.11. For the same compound, the relative viability (NCI-H2087; first compound 0.1 µM) was 1.2, the relative viability (NCI-H2087; first compound 0.3162 µM) was 0.938 and the relative viability (NCI-H2087; first compound 1 µM) was 1.17. For the same compound, the relative viability (NCI-H1944; first compound 0.01 µM) was 0.842, the relative viability (NCI-H1944; first compound 0.03162 µM) was 0.817 and the relative viability (NCI-H1944; first compound 0.1 µM) was 1.04. It also gave a relative viability (NCI-H1944; first compound 0.3162 µM) of 1.01, a relative viability (NCI-H1944; first compound 1 µM) of 0.775 and a relative viability (NCI-H2228; first compound 0.03162 µM) of 0.978. For the same compound, the relative viability (NCI-H2228; first compound 0.1 µM) was 1.03, the relative viability (NCI-H2228; first compound 0.3162 µM) was 1.23 and the relative viability (NCI-H2228; first compound 1 µM) was 1.19. It also gave a relative viability (SK-LU-1; first compound 0.01 µM) of 0.808, a relative viability (SK-LU-1; first compound 0.03162 µM) of 0.815 and a relative viability (SK-LU-1; first compound 0.1 µM) of 0.671. The relative viability (SK-LU-1; first compound 0.3162 µM) was 0.82, the relative viability (SK-LU-1; first compound 1 µM) was 0.816 and the relative viability (NCI-H1395; first compound 0.01 µM) was 0.997. The relative viability (NCI-H1395; first compound 0.03162 µM) was 1.18, the relative viability (NCI-H1395; first compound 0.1 µM) was 0.826 and the relative viability (NCI-H1395; first compound 0.3162 µM) was 1.04. For the same compound, the relative viability (NCI-H1395; first compound 1 µM) was 0.854, the relative viability (CAL-12T; first compound 0.01 µM) was 0.707 and the relative viability (CAL-12T; first compound 0.1 µM) was 0.662. The relative viability (CAL-12T; first compound 0.3162 µM) was 0.671, the relative viability (CAL-12T; first compound 1 µM) was 0.691 and the relative viability (NCI-H1650; first compound 0.03162 µM) was 0.831. The relative viability (NCI-H1650; first compound 0.1 µM) was 0.775, the relative viability (NCI-H1650; first compound 0.3162 µM) was 0.756 and the relative viability (NCI-H1650; first compound 1 µM) was 0.75. The relative viability (NCI-H647; first compound 0.01 µM) was 0.95, the relative viability (NCI-H647; first compound 0.03162 µM) was 1.22 and the relative viability (NCI-H647; first compound 0.1 µM) was 1.04. It also gave a relative viability (NCI-H647; first compound 0.3162 µM) of 1.22, a relative viability (NCI-H647; first compound 1 µM) of 1 and a relative viability (201T; first compound 0.01 µM) of 1.11. For the same compound, the relative viability (201T; first compound 0.03162 µM) was 1.03, the relative viability (201T; first compound 0.1 µM) was 1.06 and the relative viability (201T; first compound 0.3162 µM) was 0.997. It also gave a relative viability (201T; first compound 1 µM) of 0.968.
